Earlier results on 1 substance are cited in patent US20050152951A1, “Liquid, eye-instillable preparations comprising sodium hyaluronate” (priority 2001, published 2005).

The conditions of this data set: water retained by 1 gram of SH.

With Sodium hyaluronate [SH], the water retention entry is on record as “up to 6 litres”.
